Test [1] deals with T1, Myosin light chain kinase family member 4 (Homo sapiens) (UniProt Q86YV6).
T1 sequence (whole entry): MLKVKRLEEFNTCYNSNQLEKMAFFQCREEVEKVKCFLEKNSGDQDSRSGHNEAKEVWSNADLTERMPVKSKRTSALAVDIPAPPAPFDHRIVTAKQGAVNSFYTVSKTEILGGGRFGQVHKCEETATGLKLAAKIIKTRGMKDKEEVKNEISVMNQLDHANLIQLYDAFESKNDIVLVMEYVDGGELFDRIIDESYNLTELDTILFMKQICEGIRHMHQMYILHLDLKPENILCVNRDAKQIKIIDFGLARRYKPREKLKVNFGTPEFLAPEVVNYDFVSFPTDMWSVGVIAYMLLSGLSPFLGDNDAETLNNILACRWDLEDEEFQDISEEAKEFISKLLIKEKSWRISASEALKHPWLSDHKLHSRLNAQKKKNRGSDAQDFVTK
As to conditions: at 10 µM.

Test [2] has as its system Tyrosine-protein kinase ABL1 (Homo sapiens), P00519 [Y253F]. Put plainly: (§1) Selectivity interaction (KinomeScan (DiscoverX)) EUB0000607a ABL1. As to conditions: at 10 µM.
Test [3] relates to Tyrosine-protein kinase ABL1 (Homo sapiens), P00519 [T315I]. The description is as §1. As to conditions: at 10 µM.
The test system of test [4] is Tyrosine-protein kinase ABL1 (Homo sapiens), P00519 [F317I]. The description is as §1. The note with it: at 10 µM.
For test [5], the system named is Tyrosine-protein kinase ABL1 (Homo sapiens), P00519 [E255K]. Described as §1. As to conditions: at 10 µM.
The test system of test [6] is Tyrosine-protein kinase ABL1 (Homo sapiens), P00519 [H396P]. The description is as §1. As to conditions: at 10 µM.
Test [7] has as its system Tyrosine-protein kinase ABL1 (Homo sapiens), P00519 [F317L]. The test is described as §1. As to conditions: at 10 µM.
The target of test [8] is Tyrosine-protein kinase ABL1 (Homo sapiens, UniProt P00519). Described as §1. As to conditions: at 10 µM.
Test [9] has as its system Tyrosine-protein kinase ABL1 (Homo sapiens), P00519 [Q252H]. The test is described as §1. The note with it: at 10 µM.
Test [10] relates to Tyrosine-protein kinase ABL1 (Homo sapiens), P00519 [M351T]. The description is as §1. The note with it: at 10 µM.
Test [11] addresses Angiopoietin-1 receptor (Homo sapiens) (UniProt Q02763). As to conditions: at 10 µM.
The target in test [12] is Protein kinase C eta type (Homo sapiens) (UniProt P24723). Put plainly: Selectivity interaction (Kinase panel (Invitrogen)) EUB0000639a PRKCH. The note with it: at 200 nM.
Test [13] concerns the target Protein arginine N-methyltransferase 5 (Homo sapiens, UniProt O14744). Briefly: Selectivity interaction (Scintillation proximity assays) EUB0000230b PRMT5. Background: SPA uses beads or plates that emit light when radiolabelled molecules are held near them.
The target in test [14] is Non-receptor tyrosine-protein kinase TYK2 (Homo sapiens, UniProt P29597). Briefly: Selectivity interaction (KinomeScan (DiscoverX)) EUB0001868a TYK2. As to conditions: at 1 µM.
A further test concerns the target Glucocorticoid receptor (Homo sapiens, UniProt P04150). Briefly: Selectivity interaction (Glucocorticoid receptor binding assay, human recombinant ) EUB0000877a NR3C1.
For test [15], the target named is Fibroblast growth factor receptor 3 (Homo sapiens, UniProt P22607). Briefly: (§2) Selectivity interaction (KinomeScan (DiscoverX)) EUB0000618a FGFR3. As to conditions: at 10 µM.
Chain of Fibroblast growth factor receptor 3 (P22607 23-806 limits assumed): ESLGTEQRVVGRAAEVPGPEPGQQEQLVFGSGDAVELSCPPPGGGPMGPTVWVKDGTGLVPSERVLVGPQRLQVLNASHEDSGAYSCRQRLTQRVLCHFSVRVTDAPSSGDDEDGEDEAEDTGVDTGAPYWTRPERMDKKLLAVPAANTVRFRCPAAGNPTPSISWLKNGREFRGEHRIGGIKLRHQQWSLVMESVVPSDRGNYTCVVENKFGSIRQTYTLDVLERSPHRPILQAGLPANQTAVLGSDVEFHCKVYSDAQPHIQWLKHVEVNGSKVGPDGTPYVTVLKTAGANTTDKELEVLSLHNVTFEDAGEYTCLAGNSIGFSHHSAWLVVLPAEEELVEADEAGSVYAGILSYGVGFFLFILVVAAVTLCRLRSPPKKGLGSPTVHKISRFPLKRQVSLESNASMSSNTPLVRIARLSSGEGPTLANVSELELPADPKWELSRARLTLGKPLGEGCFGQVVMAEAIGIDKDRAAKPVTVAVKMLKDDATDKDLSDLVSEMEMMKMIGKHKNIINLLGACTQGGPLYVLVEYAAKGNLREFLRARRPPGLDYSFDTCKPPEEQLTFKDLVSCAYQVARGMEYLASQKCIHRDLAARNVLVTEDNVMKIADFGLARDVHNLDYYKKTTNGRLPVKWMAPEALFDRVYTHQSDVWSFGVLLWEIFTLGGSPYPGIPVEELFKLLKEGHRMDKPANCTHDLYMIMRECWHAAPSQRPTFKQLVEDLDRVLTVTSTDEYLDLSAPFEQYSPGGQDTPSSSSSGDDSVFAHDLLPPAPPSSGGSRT
Test [16] relates to Fibroblast growth factor receptor 3 (Homo sapiens), P22607 [G697C]. The test is described as §2. As to conditions: at 10 µM.
Chain of Fibroblast growth factor receptor 3 (Homo sapiens), P22607 [G697C] (P22607 whole entry G697C): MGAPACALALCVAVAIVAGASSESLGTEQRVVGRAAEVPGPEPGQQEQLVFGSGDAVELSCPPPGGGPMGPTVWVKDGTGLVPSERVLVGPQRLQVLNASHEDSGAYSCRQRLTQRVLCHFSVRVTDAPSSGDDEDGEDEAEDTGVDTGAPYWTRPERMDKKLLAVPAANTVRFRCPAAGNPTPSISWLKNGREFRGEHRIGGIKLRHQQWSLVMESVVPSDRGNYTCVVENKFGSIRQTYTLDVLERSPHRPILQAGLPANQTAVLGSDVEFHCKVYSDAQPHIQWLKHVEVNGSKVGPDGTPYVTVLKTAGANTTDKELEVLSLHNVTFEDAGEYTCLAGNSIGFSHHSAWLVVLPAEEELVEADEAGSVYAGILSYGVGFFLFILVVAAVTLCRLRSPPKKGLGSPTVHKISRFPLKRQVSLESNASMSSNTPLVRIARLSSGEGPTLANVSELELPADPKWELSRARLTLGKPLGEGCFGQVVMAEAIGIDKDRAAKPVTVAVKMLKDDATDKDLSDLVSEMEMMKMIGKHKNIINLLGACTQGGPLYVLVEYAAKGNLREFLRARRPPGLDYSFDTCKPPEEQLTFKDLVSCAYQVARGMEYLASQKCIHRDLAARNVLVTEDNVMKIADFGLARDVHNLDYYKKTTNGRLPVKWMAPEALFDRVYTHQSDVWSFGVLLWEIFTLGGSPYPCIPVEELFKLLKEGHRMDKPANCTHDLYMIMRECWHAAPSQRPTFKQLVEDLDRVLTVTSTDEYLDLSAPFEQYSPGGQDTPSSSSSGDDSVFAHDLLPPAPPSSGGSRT
Test [17] in a line: Selectivity interaction (KinomeScan (DiscoverX)) EUB0000092b CDK2H. The note with it: at 10 µM.
The target of test [18] is Protein polybromo-1 (Homo sapiens) (UniProt Q86U86). Put plainly: Selectivity interaction (Human bromodomain panel (DSF assay)) EUB0000233b PBRM1.
Chain of Protein polybromo-1 (Homo sapiens) (Q86U86 whole entry): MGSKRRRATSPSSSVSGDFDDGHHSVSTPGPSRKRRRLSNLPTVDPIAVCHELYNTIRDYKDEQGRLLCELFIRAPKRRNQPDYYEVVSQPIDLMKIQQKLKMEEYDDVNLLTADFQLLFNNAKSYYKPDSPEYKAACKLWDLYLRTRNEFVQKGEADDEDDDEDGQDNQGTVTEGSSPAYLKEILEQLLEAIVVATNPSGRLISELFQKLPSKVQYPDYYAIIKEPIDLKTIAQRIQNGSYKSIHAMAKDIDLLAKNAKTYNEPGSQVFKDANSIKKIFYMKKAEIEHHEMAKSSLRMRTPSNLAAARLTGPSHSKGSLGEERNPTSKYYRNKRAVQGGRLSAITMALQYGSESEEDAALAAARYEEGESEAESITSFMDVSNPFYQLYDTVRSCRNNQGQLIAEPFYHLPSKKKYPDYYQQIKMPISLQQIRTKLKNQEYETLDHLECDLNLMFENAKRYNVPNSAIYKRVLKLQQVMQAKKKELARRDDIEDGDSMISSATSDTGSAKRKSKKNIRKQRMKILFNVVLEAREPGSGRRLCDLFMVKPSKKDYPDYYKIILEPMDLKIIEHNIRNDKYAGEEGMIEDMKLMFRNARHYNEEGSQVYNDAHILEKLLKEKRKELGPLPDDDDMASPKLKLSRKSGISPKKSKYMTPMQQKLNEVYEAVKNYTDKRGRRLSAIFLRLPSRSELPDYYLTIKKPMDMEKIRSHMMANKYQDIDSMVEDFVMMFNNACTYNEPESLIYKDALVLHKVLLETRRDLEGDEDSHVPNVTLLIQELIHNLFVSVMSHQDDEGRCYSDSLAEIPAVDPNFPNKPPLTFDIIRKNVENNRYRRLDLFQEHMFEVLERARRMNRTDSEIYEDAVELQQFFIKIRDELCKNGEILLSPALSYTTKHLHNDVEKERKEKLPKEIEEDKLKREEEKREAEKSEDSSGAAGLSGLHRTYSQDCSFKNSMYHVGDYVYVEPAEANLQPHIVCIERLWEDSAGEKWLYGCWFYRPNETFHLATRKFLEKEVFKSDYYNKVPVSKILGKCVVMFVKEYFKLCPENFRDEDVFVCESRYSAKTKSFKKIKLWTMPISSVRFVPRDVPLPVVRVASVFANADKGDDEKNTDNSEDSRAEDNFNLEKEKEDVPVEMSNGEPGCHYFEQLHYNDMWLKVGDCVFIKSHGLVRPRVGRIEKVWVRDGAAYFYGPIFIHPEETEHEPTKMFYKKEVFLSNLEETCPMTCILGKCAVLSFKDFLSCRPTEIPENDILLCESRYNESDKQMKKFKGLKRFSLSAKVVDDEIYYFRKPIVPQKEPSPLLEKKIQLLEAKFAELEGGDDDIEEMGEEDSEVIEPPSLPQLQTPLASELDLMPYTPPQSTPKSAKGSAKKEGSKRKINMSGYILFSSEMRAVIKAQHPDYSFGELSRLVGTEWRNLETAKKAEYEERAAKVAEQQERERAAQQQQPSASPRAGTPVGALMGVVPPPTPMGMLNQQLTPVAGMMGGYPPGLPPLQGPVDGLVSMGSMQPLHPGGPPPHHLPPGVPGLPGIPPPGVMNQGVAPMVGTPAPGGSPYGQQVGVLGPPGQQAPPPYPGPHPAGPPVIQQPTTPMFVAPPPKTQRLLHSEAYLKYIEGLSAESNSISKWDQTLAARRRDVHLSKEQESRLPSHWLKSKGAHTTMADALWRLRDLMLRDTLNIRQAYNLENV
Test [19] addresses Glutamate receptor ionotropic, NMDA 1 (Homo sapiens) (UniProt Q05586). Briefly: Selectivity interaction (Panel of non-epigenetic targets (kinases, GPCRs, ion channels, and transporters, Eurofins) ) EUB0000271b GRIN1. As to conditions: at 1 µM.
In another test the target is Histamine H1 receptor (Homo sapiens, UniProt P35367). Put plainly: Selectivity interaction (Panel of kinases, GPCRs, ion channels and transporters (enzymatic assay)) EUB0000266bCl HRH1.
Chain of Histamine H1 receptor (P35367 whole entry): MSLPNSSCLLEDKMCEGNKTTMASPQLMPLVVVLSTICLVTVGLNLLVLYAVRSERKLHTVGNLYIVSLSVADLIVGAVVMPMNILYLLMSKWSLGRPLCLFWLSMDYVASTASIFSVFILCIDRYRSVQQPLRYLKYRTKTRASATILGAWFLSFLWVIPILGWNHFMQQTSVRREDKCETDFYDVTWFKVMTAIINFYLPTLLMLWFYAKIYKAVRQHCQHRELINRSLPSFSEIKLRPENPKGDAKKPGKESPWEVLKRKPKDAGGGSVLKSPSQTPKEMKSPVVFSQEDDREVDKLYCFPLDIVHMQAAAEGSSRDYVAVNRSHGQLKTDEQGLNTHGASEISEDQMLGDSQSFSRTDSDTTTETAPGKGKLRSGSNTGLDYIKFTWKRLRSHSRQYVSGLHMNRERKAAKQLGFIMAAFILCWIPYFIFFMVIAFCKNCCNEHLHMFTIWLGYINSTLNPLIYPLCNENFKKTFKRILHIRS
Test [20] deals with Tyrosine-protein kinase BTK (Homo sapiens, UniProt Q06187). Briefly: Selectivity interaction (Kinome Scan (DiscoverX)) EUB0000229b BTK. The note with it: at 10 µM.
Chain of Tyrosine-protein kinase BTK (Q06187 whole entry): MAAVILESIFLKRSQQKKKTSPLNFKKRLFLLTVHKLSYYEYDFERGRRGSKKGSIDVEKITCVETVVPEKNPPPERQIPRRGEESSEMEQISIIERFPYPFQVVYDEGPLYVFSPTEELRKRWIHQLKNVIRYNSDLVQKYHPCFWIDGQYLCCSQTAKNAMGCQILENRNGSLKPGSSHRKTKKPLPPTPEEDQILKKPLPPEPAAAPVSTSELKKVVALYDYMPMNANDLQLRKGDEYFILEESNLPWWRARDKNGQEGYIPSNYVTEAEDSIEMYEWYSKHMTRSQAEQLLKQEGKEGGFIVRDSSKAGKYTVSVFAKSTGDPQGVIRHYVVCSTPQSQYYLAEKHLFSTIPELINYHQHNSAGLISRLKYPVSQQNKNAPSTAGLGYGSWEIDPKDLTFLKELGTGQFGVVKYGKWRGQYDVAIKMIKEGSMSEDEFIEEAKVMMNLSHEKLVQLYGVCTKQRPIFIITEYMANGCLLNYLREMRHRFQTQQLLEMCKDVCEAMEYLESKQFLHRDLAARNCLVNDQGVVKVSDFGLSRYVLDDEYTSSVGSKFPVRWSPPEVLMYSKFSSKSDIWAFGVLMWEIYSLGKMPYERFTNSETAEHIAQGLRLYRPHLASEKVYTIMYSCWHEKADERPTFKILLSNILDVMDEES
Test [21] has as its target T2, Serine/threonine-protein kinase Nek11 (Homo sapiens) (UniProt Q8NG66).
T2 sequence (whole entry): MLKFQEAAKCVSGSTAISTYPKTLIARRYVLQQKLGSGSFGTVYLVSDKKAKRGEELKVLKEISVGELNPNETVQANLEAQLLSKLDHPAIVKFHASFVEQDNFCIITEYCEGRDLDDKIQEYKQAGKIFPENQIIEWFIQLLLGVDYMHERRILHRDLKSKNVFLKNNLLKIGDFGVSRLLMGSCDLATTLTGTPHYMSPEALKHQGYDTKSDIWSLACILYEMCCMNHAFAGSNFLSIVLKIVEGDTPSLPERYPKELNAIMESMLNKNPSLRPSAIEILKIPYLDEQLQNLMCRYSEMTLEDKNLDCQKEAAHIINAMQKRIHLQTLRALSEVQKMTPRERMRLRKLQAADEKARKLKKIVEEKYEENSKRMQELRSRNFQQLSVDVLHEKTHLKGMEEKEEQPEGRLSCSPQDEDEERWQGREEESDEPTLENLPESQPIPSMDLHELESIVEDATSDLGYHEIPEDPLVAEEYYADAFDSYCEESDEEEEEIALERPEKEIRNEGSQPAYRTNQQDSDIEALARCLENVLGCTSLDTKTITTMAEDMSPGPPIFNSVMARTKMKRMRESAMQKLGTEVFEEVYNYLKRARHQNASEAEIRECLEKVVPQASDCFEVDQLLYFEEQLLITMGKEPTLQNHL
Put plainly: Selectivity interaction (KinomeScan (DiscoverX)) EUB0000229b NEK11. The note with it: at 10 µM.

The structures appear in SMILES notation.

For orientation: IC50 means the midpoint of a concentration-inhibition curve.

Chain of Protein arginine N-methyltransferase 5 (O14744 whole entry): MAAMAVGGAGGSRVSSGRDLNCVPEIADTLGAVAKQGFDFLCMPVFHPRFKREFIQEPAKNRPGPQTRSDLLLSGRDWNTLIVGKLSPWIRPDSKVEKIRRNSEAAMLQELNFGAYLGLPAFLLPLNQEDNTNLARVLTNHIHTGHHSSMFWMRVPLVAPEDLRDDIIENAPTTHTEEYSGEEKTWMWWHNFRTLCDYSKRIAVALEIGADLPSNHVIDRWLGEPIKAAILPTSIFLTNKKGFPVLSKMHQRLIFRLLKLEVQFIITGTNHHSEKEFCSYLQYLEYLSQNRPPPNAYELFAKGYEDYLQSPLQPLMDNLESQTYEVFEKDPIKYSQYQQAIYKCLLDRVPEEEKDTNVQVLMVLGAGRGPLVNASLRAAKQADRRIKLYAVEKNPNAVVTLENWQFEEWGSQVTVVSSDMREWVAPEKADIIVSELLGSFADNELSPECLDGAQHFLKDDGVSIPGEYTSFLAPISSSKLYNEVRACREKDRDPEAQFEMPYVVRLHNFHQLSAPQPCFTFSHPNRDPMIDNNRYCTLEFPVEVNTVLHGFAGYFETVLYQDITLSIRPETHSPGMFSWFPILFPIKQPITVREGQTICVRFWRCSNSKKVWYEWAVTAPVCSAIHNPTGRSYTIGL

As for `COCC(=O)NC/C=C/c1ccc2ncnc(Nc3ccc(Oc4ccc(C)nc4)c(C)c3)c2c1` [CP-724714], the % of control in test [1] was found to be 100%. As to `CNC(=O)Nc1ccc(-c2nc(N3CC4CCC(C3)O4)c3cnn(C4CCC5(CC4)OCCO5)c3n2)cc1`, the % of control in [2] came to 99%; in test [3], 83%; in test [4] it was 100%; in [5], 100%; in [6] it was 100%; in [7], 100%. In addition, the % of control in test [8], in test [9] and in [10] was 100% each time.

For `Cc1cc([C@@H](C)Nc2ccccc2C(=O)O)c2nc(N3CCOCC3)cc(=O)n2c1` [AZD-6482], in test [11], the % of control is 100%.

`CC[C@@H]1[C@H](F)C(=O)N[C@@H]1COc1nccc2cc(C(N)=O)c(OC)cc12` [ZIMLOVISERTIB]: the % of inhibition in [12] stood at 7.47%. Turning to `CNCCN1CCC(c2cc(CN(C)C(=O)c3cccc(Oc4ccccc4)c3)ccn2)CC1`, the IC50 in [13] is above 10 µM. Take `Cc1cc(-c2ccnc(Nc3cnn(C)c3)n2)ccc1CNC(=O)N1CC(OC(C)C)C1`: the % of control in [14] amounted to 47%. On to `CCC(=O)N1CC[C@H](Nc2ncnc3c2CN(c2cnc(OC)c(C(F)(F)F)c2)CC3)C1` [LENIOLISIB], for which the half-inhibitory concentration (IC50) on Glucocorticoid receptor was above 30 µM. For `O[C@H]1CC[C@H](Nc2ncc3nc(Nc4c(F)cc(F)cc4F)n([C@H]4CCOC4)c3n2)CC1`, the % of control in [15] stood at 88%; in test [16] it was 82%. In test [17], `CCC(=O)N1CCN(c2ccc(-n3c(=O)ccc4cnc5ccc(-c6cnc7ccccc7c6)cc5c43)cc2C(F)(F)F)CC1` returned a % of control of 97%. Regarding `CN(C)CCCOc1ccc(-c2cc(NCCCn3cccn3)nc(S(C)(=O)=O)n2)cc1`, in test [18], the dTM is below 2 K. Compound `Cc1cc(C)cc([C@@H]2c3cc(C)ccc3NC(=O)CN2C(=O)c2ccc(Br)s2)c1` yielded a % of inhibition in [19] of 1%. In the case of `CCn1c(-c2nc3cc(C(=O)N4CCCC(N)C4)ccc3n2C)cc2ccccc21` (stereo not drawn), the pXC50 at Histamine H1 receptor was below 4.4 M.

For the compound `COc1cc(N(C)c2ccnc3ccc(C(F)(F)F)cc23)cc(OC)c1OC`, the % binding in test [20] is 100%; in test [21], 91%.

The values above are taken from ChEMBL document CHEMBL5465560, “Selectivity Literature for EUbOPEN Chemogenomic Library” (2024).
